# Laboratory results from patent publication US9061984B2 (University of Louisville Research Foundation, Inc., priority 2008, dated 2015).
# “And” between values parts separate entries of the source, which are not always exact repeats. Equal entries are not always repeated. Where two headings read alike, the source gives them in different places.
# Key:
# 3T3 cells = test: Cell growth inhibition bioassay (sulforhodamine B); assay type: cell-based, mouse; conditions: 48 h, SRB; for GI50: Mus musculus, NIH3T3, read-out: GI50 in indicated cell line: 3T3
# In short: (§1)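 Cells were exposed to compound alongside matched solvent controls, then stained with sulforhodamine B. Percent growth inhibition was calculated from dye absorbance against the control.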
# [1] = system: axenic amastigotes of L. amazonensis (strain MHOM/BR/76/LTB-012); conditions: Table 8b
# [2] = biological target: Trypanosoma cruzi (Tulahuen C4); test: In vitro anti-T. cruzi activity (β-galactosidase CPRG colorimetric assay in VERO monolayer); assay type: cell-based; conditions: for Selectivity Index Lab B: IC50, VERO/IC50, T. cruzi; for inhibition at 10 µg/mL / IC50: Trypanosoma cruzi, TULAHUEN, Vero; for inhibition at 10 µg/mL: 120 h, read-out: T. cruzi Inhib. (%); for inhibition at 10 µg/mL / T. cruzi Inhib. (%): 10 μg/mL of each compound, 120 hours
# VERO cells [3] = test: Cell growth inhibition bioassay (sulforhodamine B); assay type: cell-based, African Green Monkey; conditions: 48 h, SRB; for GI50: Chlorocebus sabaeus, Vero, read-out: GI50 in indicated cell line: VERO
# In short: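 Cytotoxicity is read by sulforhodamine B colorimetry following the Skehan protocol; values are growth inhibition relative to solvent-only wells.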
# MCF-7 cells = test: Cell growth inhibition bioassay (sulforhodamine B); assay type: cell-based, human; conditions: 48 h, SRB; for GI50: Homo sapiens, MCF7, read-out: GI50 in indicated cell line: MCF-7
# In short: as §1
# HT-29 cells = test: Cell growth inhibition bioassay (sulforhodamine B); assay type: cell-based, human; conditions: 48 h, SRB; for GI50: Homo sapiens, HT-29, read-out: GI50 in indicated cell line: HT-29
# In short: as §1
# K562 cells = test: Cell growth inhibition bioassay (sulforhodamine B); assay type: cell-based, human; conditions: 48 h, SRB; for GI50: Homo sapiens, K562, read-out: GI50 in indicated cell line: K562
# In short: as §1
# M-14 cells = test: Cell growth inhibition bioassay (sulforhodamine B); assay type: cell-based, human; conditions: 48 h, SRB; for GI50: Homo sapiens, M14, read-out: GI50 in indicated cell line: M-14
# In short: as §1
# H460 cells = test: Cell growth inhibition bioassay (sulforhodamine B); assay type: cell-based, human; conditions: 48 h, SRB; for GI50: Homo sapiens, NCI-H460, read-out: GI50 in indicated cell line: H460
# In short: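 Human cancer cells (MCF-7 breast, DU145 and PC3 prostate, H460 large cell lung) were treated with compounds. Growth relative to solvent control was quantified by SRB protein stain.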
# DU145 cells = test: Cell growth inhibition bioassay (sulforhodamine B); assay type: cell-based, human; conditions: 48 h, SRB; for GI50: Homo sapiens, DU-145, read-out: GI50 in indicated cell line: DU145
# In short: as §1
# VERO cells [4] = system: VERO cells
# peritoneal macrophages = test: Toxicity to peritoneal macrophages (Trypan Blue count); assay type: cell-based, BALB/C mouse
# M. tuberculosis H37Rv [5] = test: Conventional aerobic (MABA) culture assay, luminescence MIC; assay type: cell-based, Mycobacterium tuberculosis; conditions: for MIC: Mycobacterium tuberculosis, 168 h
# [6] = system: axenic amastigotes of L. amazonensis (strain MHOM/BR/76/LTB-012); test: microbe, parasite or virus in culture; conditions: Leishmania amazonensis
# L. braziliensis PER006 = test: Activity against macrophages infected with Leishmania amastigotes; conditions: Leishmania braziliensis, Macrophage, read-out: IC50 L. braziliensis PER006
# Protocol: (§2) A cloned line of Leishmania amazonensis(strain MHOM/BR/76/LTB-012) was used in all experiments. Axenically grown amastigote forms of L. amazonensis were maintained by weekly subpassages in MAA/20 medium (Sereno and Lemesre, Antimicrobial Agents and Chemotherapy 41, 972-976 (1997)) at 32±1° C. in 25 cm^2 tissue culture flasks. L. peruviana (strain MHOM/PE/LCA08) and L. braziliensis (strainMHOM/PE/PER006) were maintained in the promastigote stage in a biphasic medium (blood agar with 0.89% NaCl, pH 7.4) at 24° C., with sub-passage every 3 to 4 days. Promastigotes (5×10^6 parasites) were then transferred to 25 cm2 tissue culture flasks containing 5 ml of M199 medium supplemented with 10% foetal bovine serum (FBS), pH 7.4. After 4 days, exponential phase promastigotes were centrifuged for 10 minutes at 1500 g and 4° C. The supernatant was discarded and replaced by fresh M199 medium supplemented with 20% FBS, pH 5.5. Axenic amastigotes transformation was then induced by increasing the temperature to 34° C. and incubating for 96 h (Teixeira et al., Parasitology Research 88, 963-968 (2002)).
# (§3) Extracted cells were immediately deposited on sterile 4×4 mm cover glasses and placed in each well of a 96-well plate. Plates were incubated for 24 h at 37° C., 5% CO2 to allow cell adhesion (Castillo et al, Journal of Ethnopharmacology 112, 410-414 (2007)). Pre-warmed complete M199 medium was used twice to remove non-adherent cells. A neutral red method (Fautz et al., Mutation Research 253, 173-179 (1991)) was employed to determine cell concentration. Approximately 7×10^4 viable cells were deposited in each well for adhesion.
# (§4) Infection of macrophages by amastigotes was determined as follows. […] Twelve hours after infection, a solution of the compounds to be tested was added to the cultures at various concentrations and maintained at 37° C. in 5% CO2 for a further forty-eight hours more. The plates were fixed with methanol and stained with 10% Giemsa stain. The percentage of infected macrophages was determined microscopically at 100 times magnification. The number of intracellular amastigotes was determined in 300 cells. Following Delorenzi et al. Antimicrobial Agents and Chemotherapy, 45, 1349-1354 (2001)) the percentage of infection rate (% IR) of each culture was calculated as follows: % IR=100−(infection rate of the treated culture/infection rate of the untreated culture)×100.
# (§5) All experiments were performed in triplicate. ANOVA was used to test for statistical significance of differences (Epi-Info, Statview student program). The total parasite burden was calculated as a mean number of amastigotes per cells multiplied by the number of infected macrophages.
# L. amazonensis = conditions: intralesional, compounds 5 mg/kg/day, Glucantime 33 mg Sb(v)/kg/day; for Mean lesion wt (mg) (±SD): BALB/c mice n=10; for % Variation of lesion wt / % reduction of parasite burden in the lesion: vs control
# VERO cells [7] = test: VERO cells IC50 (Table 5); assay type: cell-based, African green monkey; conditions: Chlorocebus sabaeus
# M. tuberculosis H37Rv [8] = test: Anti-tuberculosis bioassay (tetrazolium microplate MIC); assay type: cell-based; conditions: Mycobacterium tuberculosis, read-out: Mycobacterium MIC H37Rv, Table 5
# [9] = Cytotoxicity on VERO cells (MTT), anti-T. cruzi study; conditions: African green monkey, VERO cells
# L. peruviana LCA08 = test: Activity against macrophages infected with Leishmania amastigotes; conditions: Leishmania peruviana, Macrophage, read-out: IC50 L. peruviana LCA08
# Protocol: as §2, §3, §4, §5
# [10] = Toxicity to peritoneal macrophages (Trypan Blue count); assay type: cell-based, BALB/C mouse; conditions: BALB/C, mouse
# M. tuberculosis MDR = test: Anti-tuberculosis bioassay (tetrazolium microplate MIC); assay type: cell-based; conditions: Mycobacterium tuberculosis, read-out: Mycobacterium MIC MDR
# PC3 cells = test: Cell growth inhibition bioassay (sulforhodamine B); assay type: cell-based; conditions: Homo sapiens, PC-3; 48 h, SRB; read-out: GI50 in indicated cell line: PC3
# Protocol: The cytotoxicity of compounds was assayed as follows. […] Appropriate solvent controls were tested for comparison. The percent inhibition of cell growth relative to the control was evaluated colorimetrically using a sulforhodamine B dye by comparison to the control. The calorimetric procedure followed that published in Skehan et al., J. Nat. Cancer Inst., […], pp. 1107-1112 (1990) and Boyd & Paull, Drug Dev. Res., Vol. 34, pp. 91-109 (1995). […] The cell lines are: 3T3 cells are BALB/3T3 clone A31 embryonic mouse fibroblast cells; H460 cells are human large cell lung cancer cells; DU145 cells are human prostate carcinoma cells; MCF-7 cells are human breast adenocarcinoma cells; M-14 cells are human melanoma cells; HT-29 cells are human colon adenocarcinoma cells; PC3 cells are human prostate adenocarcinoma cells; K562 cells are human chronic myelogenous leukemia cells; and VERO cells are African Green Monkey kidney epithelial cells.
# in vitro = conditions: African green monkey
# [11] = read-out: IC50 Cytotoxicity Against Amastigotes
# [12] = Lab B, read-out: T. cruzi IC50 Lab B
# [13] = Table 2, read-out: IC50 - T. cruzi
# [14] = IC50 - VERO Cytotoxicity, Table 2
# [15] = IC50 Cytotoxicity Against Macrophages
# [16] = Table 3, read-out: IC50 T. cruzi
compound,measurement,setting,value
CC(C)=NNc1ncnc2sc3c(c12)CCCC3 [II-44],GI50 in indicated cell line: 3T3,3T3 cells,<0.98 mg/L
same,IC50,[1]; read-out: L. amazonensis IC50,10.6 µM
same,T. cruzi IC50 Lab A,[2]; Lab A,3.2 mg/L
same,T. cruzi IC50 Lab B,[2]; Lab B,3.7 mg/L
same,Cytotoxicity VERO cell,VERO cell,32.7 µg/mL
same,GI50 in indicated cell line: VERO,VERO cells [3],3.7 mg/L
same,GI50 in indicated cell line: MCF-7,MCF-7 cells,3.2 mg/L
same,GI50 in indicated cell line: HT-29,HT-29 cells,8.6 mg/L
same,GI50 in indicated cell line: K562,K562 cells,3.5 mg/L
same,GI50 in indicated cell line: M-14,M-14 cells,6.1 mg/L
same,GI50 in indicated cell line: H460,H460 cells,2.4 mg/L
same,GI50 in indicated cell line: DU145,DU145 cells,3.0 mg/L
same,Cytotoxicity VERO Lab B,VERO cells [4],10.0
same,IC50,peritoneal macrophages,62 µM
same,MIC MABA,"M. tuberculosis H37Rv [5]; aerobic, 7 days, H37Rv",62.4 mg/L
Clc1ccc(/C=N\Nc2ncnc3sc4c(c23)CCCC4)cc1 [II-28],GI50,3T3 cells,6.4 mg/L
same,IC50,[6]; [11],3.3 µM
same,IC50,[6]; read-out: L. amazonensis IC50,0.6 µM
same,Selectivity Index,[1],85.2
same,Selectivity Index Lab B,[2]; Lab B,1.6
same,inhibition at 10 µg/mL,[2],74.7%
same,IC50,"[2]; Lab A, read-out: T. cruzi IC50 Lab A",1.6 mg/L
same,IC50,[2]; [12],4.5 mg/L
same,IC50,[2]; [13],6.5 mg/L
same,IC50,L. braziliensis PER006,5.9 mg/L
same,Mean lesion size (mm),L. amazonensis; after 4 weeks treatment,3.6 mm
same,Mean parasite quantification (per 10^6) in lesion per mg (±SD),L. amazonensis; after 4 weeks treatment,0.92 (±0.32) amastigotes (×10^6)/mg
same,Mean lesion wt (mg) (±SD),L. amazonensis; after 4 weeks treatment,60.4 (±31.3) mg
same,% Variation of lesion wt,L. amazonensis; after 4 weeks treatment,0%
same,% reduction of parasite burden in the lesion,L. amazonensis; after 4 weeks treatment,46%
same,Mean lesion size (mm),L. amazonensis; after 7 weeks treatment,5.2 mm
same,Mean parasite quantification (per 10^6) in lesion per mg (±SD),L. amazonensis; after 7 weeks treatment,1.26 (±0.02) amastigotes (×10^6)/mg
same,Mean lesion wt (mg) (±SD),L. amazonensis; after 7 weeks treatment,169.1 (±15.3) mg
same,% Variation of lesion wt,L. amazonensis; after 7 weeks treatment,−90%
same,% reduction of parasite burden in the lesion,L. amazonensis; after 7 weeks treatment,25%
same,IC50,VERO cells [7],> 80 mg/L
same,GI50,VERO cells [3],3 mg/L
same,GI50,MCF-7 cells,2.9 mg/L
same,GI50,HT-29 cells,5.2 mg/L
same,GI50,K562 cells,2.3 mg/L
same,GI50,M-14 cells,> 62.5 mg/L
same,GI50,H460 cells,4.4 mg/L
same,GI50,DU145 cells,5 mg/L
same,MIC,M. tuberculosis H37Rv [8],12.5 mg/L
same,IC50,"[9]; Cytotoxicity VERO Lab B, Lab B",7 mg/L
same,IC50,[9]; [14],27 mg/L
same,IC50,L. peruviana LCA08,> 10 mg/L
same,IC50 at 48 h,[10]; Cytotoxicity Macrophages IC50,48.8 µM
same,IC50 at 48 h,[10]; [15],> 10 µM
same,MIC,M. tuberculosis MDR,6.25 mg/L
same,MIC,"M. tuberculosis H37Rv [5]; aerobic, 7 days, H37Rv",> 100 mg/L
Fc1ccccc1/C=N\Nc1ncnc2sc3c(c12)CCCC3 [II-27],GI50,3T3 cells,> 93.8 mg/L
same,IC50,[6]; [11],3.2 µM
same,IC50,[6]; read-out: L. amazonensis IC50,1.1 µM
same,Selectivity Index,[1],3.1
same,Selectivity Index Lab B,[2]; Lab B,1.7
same,inhibition at 10 µg/mL,[2],78.9%
same,IC50,[2]; [12],3.5 mg/L
same,IC50,[2]; [13],4.37 mg/L
same,IC50,VERO cells [7],27.7 mg/L
same,GI50,VERO cells [3],> 93.8 mg/L
same,GI50,MCF-7 cells,24.5 mg/L
same,GI50,HT-29 cells,> 93.8 mg/L
same,GI50,K562 cells,26.5 mg/L
same,GI50,M-14 cells,> 93.8 mg/L
same,GI50,H460 cells,> 93.8 mg/L
same,GI50,DU145 cells,> 93.8 mg/L
same,MIC,M. tuberculosis H37Rv [8],3.12 mg/L
same,IC50,"[9]; Cytotoxicity VERO Lab B, Lab B",6 mg/L
same,IC50,[9]; [14],7 mg/L
same,IC50 at 48 h,[10]; Cytotoxicity Macrophages IC50,3.3 µM
same,IC50 at 48 h,[10]; [15],> 10 µM
same,MIC,M. tuberculosis MDR,3.12 mg/L
same,MIC,"M. tuberculosis H37Rv [5]; aerobic, 7 days, H37Rv",> 100 mg/L
"COc1ccc(CCC(=O)c2c(O)cc(O)cc2OC)cc1 [Compound I-07, 1-(2,4-Dihydroxy-6-methoxyphenyl)-3-(4-methoxyphenyl)-1-propanone]",GI50,3T3 cells,> 206 µM
same,T. cruzi Inhib. (%),[2],27.74%
same,inhibition at 10 µg/mL,[2],20.5%
same,IC50,[2]; [16],> 25 µM
same,GI50,PC3 cells,59.9 µM
same,GI50,MCF-7 cells,65.5 µM
same,GI50,HT-29 cells,> 206 µM
same,GI50,K562 cells,22.8 µM
same,GI50,M-14 cells,109 µM
same,GI50,H460 cells,128 µM
same,GI50,DU145 cells,> 206 µM
same,melting point,,166 °C
"CO[C@H]1/C=C/O[C@@]2(C)Oc3c(C)c(O)c4c(O)c(c(/C=N/N5CCN(C)CC5)c(O)c4c3C2=O)NC(=O)/C(C)=C\C=C\[C@H](C)[C@H](O)[C@@H](C)[C@@H](O)[C@@H](C)[C@H](OC(C)=O)[C@@H]1C [Rifampin, reference compound]",IC50,in vitro,97.2 mg/L
same,MIC,"M. tuberculosis H37Rv [5]; aerobic, 7 days, H37Rv",0.09 mg/L
same,Selectivity Index H37Rv,M. tuberculosis H37Rv [5]; VERO vs MABA MIC,1025.8
"COc1ccc(CCC(=O)c2c(O)cc(OC)cc2OC)cc1 [Compound I-03, 1-(2-Hydroxy-4,6-dimethoxyphenyl)-3-(4-methoxyphenyl)-1-propanone]",GI50,3T3 cells,> 197 µM
same,IC50,[2]; [16],> 100 µM
same,GI50,PC3 cells,> 197 µM
same,GI50,MCF-7 cells,> 197 µM
same,GI50,HT-29 cells,> 197 µM
same,GI50,K562 cells,> 197 µM
same,GI50,M-14 cells,> 197 µM
same,GI50,H460 cells,> 197 µM
same,GI50,DU145 cells,> 197 µM
same,melting point,,107 °C
"COc1cc(O)c(C(=O)CCc2ccc3c(c2)OCO3)c(OC)c1 [Compound I-04, 3-(1,3-Benzodioxol-5-yl)-1-(2-hydroxy-4,6-dimethoxyphenyl)-1-propanone]",GI50,3T3 cells,21.5 µM
same,T. cruzi Inhib. (%),[2],12.96% and 3.24%
same,IC50,[2]; [16],> 100 µM
same,GI50,PC3 cells,39.1 µM
same,GI50,MCF-7 cells,42.4 µM
same,GI50,HT-29 cells,145 µM
same,GI50,K562 cells,28.2 µM
same,GI50,M-14 cells,82 µM
same,GI50,H460 cells,105 µM
same,GI50,DU145 cells,60.2 µM
same,melting point,,125 °C
